These results are taken from PMC7542364 (mBio, 2020).

Experiment [1] addresses HemATN (HemAT sensing domain, residues 1 to 178) (Bacillus subtilis, UniProt O07621). Particulars: 50 uM protein, 3 mM ethanol, modified PBS pH 8.0, 10% D2O, 298 K; heme not involved (UV spectra).
In experiment [2] the target is McpBC (McpB cytoplasmic region, residues 305 to 662) (Bacillus subtilis, UniProt P39215). Particulars: 50 uM protein, 3 mM ethanol, PBS in D2O pH 7.4, 298 K.

The structures appear in SMILES notation.

Sequence of McpBC (McpB cytoplasmic region, residues 305 to 662) (P39215 305-662): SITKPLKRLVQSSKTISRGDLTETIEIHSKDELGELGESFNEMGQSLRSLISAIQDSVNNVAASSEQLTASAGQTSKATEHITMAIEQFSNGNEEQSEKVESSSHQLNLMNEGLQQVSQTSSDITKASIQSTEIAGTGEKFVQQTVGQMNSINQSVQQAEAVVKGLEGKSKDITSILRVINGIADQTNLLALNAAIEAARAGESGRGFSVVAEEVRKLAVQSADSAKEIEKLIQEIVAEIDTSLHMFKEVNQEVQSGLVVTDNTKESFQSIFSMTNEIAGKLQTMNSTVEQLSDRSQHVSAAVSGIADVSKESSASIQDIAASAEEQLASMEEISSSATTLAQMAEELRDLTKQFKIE
Sequence of HemATN (HemAT sensing domain, residues 1 to 178) (O07621 1-178): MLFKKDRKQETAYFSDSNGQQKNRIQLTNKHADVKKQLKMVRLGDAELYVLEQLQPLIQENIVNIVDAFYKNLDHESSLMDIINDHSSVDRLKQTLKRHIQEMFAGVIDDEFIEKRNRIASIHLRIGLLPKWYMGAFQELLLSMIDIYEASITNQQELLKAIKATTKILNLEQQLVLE

`CCO` [ethanol]: the “STD/1H area ratio, -CH3 (-CH2 0.85)” value in experiment [1] came out at 0.27. Moreover, the “saturation fraction (STD/1H area ratio, -CH3)” value in experiment [2] amounted to 0.23.
